Experimental findings from US20230295109A1, “PYRIDINONE COMPOUNDS FOR THE TREATMENT OF AUTOIMMUNE DISEASE” (F. Hoffmann-La Roche AG, priority 2020, published 2023) are described below.

Like-named read-outs stand apart in the source and are kept apart here.

The IC50 is the concentration at which inhibition is half-maximal. A high value points to weaker potency in that assay. Usually IC20 stands for the concentration needed for an effect of 20%. A lower IC20 goes with greater potency. Broadly, the Cmax is the peak of the concentration-time curve. The clearance is the rate of elimination divided by the concentration. A high value points to a high capacity for elimination.

Series [1] concerns the target T1, hERG channel (Homo sapiens, UniProt Q12809).
T1 construct: expressed in transfected cells; host or cells: CHO (Chinese hamster ovary), CHOhERG
As to the kind of experiment: hERG channel inhibition assay (patch-clamp, CHOhERG cells). The format is cell-based. To be noted: for IC50 / IC20: CHOhERG cells, whole-cell patch-clamp; for IC20: human, CHO cells stably expressing hERG (CHOhERG); for hERG IC20 / TLR8 IC50 / hERG IC20 / TLR9 IC50 / hERG IC20 /TLR7 IC50: safety ratio. The protocol: The hERG K^+ channels were cloned in humans and stably expressed in a CHO (Chinese hamster ovary) cell line. CHOhERG cells were used for patch-clamp (voltage-clamp, whole-cell) experiments. Cells were stimulated by a voltage pattern to activate hERG channels and conduct IKhERG currents (rapid delayed outward rectifier potassium current of the hERG channel). After the cells were stabilized for a few minutes, the amplitude and kinetics of IKhERG were recorded at a stimulation frequency of 0.1 Hz (6 bpm). Thereafter, the test compound was added to the preparation at increasing concentrations. For each concentration, an attempt was made to reach a steady-state effect, usually, this was achieved within 3-10 min at which time the next highest concentration was applied. The amplitude and kinetics of IKhERG are recorded in each concentration of the drug which were compared to the control values (taken as 100%). (references: Redfern WS, Carlsson L, Davis AS, Lynch WG, MacKenzie I, Palethorpe S, Siegl PK, Strang I, Sullivan AT, Wallis R, Camm AJ, Hammond TG. 2003; Relationships between preclinical cardiac electrophysiology, clinical QT interval prolongation and torsade de pointes for a broad range of drugs: evidence for a provisional safety margin in drug development. Cardiovasc. Res. 58:32-45, Sanguinetti MC, Tristani-Firouzi M. 2006; hERG potassium channels and cardiac arrhythmia. Nature 440:463-469, Webster R, Leishman D, Walker D. 2002; Towards a drug concentration effect relationship for QT prolongation and torsades de pointes. Curr. Opin. Drug Discov. Devel. 5:116-26).
For orientation: Block of hERG is tested as a sign of cardiac risk.

Series [2] can be described thus: Single dose pharmacokinetics (PK) study in male Wister-Han rats. The format is in vivo. The protocol:
Pharmacokinetic properties of selected compounds were assessed by single dose PK studies in Male Wister-Han Rats (vendor: Beijing Vital River Laboratory Animal Technology Co., Ltd). Briefly, two groups of animals were administered a single dose of respective compound intravenously (IV, bolus) at 2 mg/kg or orally (PO, by gavage) at 10 mg/kg. Blood samples (approximately 150 µL) were collected via Jugular vein at 5 min (only for IV), 15 min, 30 min, 1 h, 2 h, 4 h, 7 h and 24 h post-dose. Blood samples were placed into tubes containing EDTA-K2 anticoagulant and centrifuged at 3000 rpm for 15 min at 4° C. to separate plasma from the samples. After centrifugation, the resulting plasma was transferred to clean tubes for bioanalysis with LC/MS/MS. The pharmacokinetic parameters were calculated using non-compartmental analysis. The volume of distribution (Vss), half-life (T½) and clearance (CL) were obtained based on the plasma concentration-time curve after IV dose. The peak concentration (Cmax) was recorded directly from experimental observations after PO dose. The area under the plasma concentration-time curve (AUC0-last) was calculated using the linear trapezoidal rule up to the last detectable concentration. The bioavailability (F) was calculated based on the dose normalized AUC0-last after IV and PO dose.
The Vss of a drug represents the degree to which a drug is distributed in body tissue rather than the plasma. Vss is directly proportional with the amount of drug distributed into tissue. A higher Vss indicates a greater amount of tissue distribution.

T1 sequence (Q12809 whole entry): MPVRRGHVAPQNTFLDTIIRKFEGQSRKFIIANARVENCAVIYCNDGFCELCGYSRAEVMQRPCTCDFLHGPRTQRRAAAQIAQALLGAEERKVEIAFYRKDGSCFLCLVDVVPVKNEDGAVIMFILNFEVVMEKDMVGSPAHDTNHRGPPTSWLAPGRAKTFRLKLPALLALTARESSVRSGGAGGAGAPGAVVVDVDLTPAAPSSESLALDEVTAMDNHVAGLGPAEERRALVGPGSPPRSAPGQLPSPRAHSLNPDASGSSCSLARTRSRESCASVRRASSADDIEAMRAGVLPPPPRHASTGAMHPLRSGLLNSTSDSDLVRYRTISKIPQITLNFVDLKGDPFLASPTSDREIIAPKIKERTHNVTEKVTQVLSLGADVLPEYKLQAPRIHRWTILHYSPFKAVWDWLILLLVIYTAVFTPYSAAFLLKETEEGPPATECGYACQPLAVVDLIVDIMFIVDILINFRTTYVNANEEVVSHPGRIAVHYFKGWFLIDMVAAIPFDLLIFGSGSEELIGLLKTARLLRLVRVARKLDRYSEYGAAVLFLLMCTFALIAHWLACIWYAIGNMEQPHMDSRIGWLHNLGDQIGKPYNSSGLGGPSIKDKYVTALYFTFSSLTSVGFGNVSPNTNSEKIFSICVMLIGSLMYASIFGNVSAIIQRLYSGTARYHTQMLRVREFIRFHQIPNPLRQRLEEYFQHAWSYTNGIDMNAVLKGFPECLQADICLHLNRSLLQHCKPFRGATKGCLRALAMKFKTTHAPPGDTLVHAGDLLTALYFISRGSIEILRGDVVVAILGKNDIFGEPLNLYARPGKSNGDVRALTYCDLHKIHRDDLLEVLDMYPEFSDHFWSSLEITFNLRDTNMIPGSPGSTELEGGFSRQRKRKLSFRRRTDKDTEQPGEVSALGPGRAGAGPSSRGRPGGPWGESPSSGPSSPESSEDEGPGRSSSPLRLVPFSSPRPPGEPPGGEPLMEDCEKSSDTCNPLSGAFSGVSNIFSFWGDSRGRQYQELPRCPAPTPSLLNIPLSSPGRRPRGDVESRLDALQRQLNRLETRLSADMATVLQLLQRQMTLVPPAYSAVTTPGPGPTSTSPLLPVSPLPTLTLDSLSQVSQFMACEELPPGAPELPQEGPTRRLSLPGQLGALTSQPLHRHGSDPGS

In the case of `CCc1nc(N2CCN(Cc3ccc(N4CC5(CNCCO5)C4)nc3)CC2)ccc1-c1cc(C)c(=O)n(C)c1` [Example 2, 5-[2-ethyl-6-[4-[[6-(5-oxa-2,8-diazaspiro[3.5]nonan-2-yl)-3 pyridyl]methyl]piperazin-1-yl]-3-pyridyl]-1,3-dimethyl-pyridin-2-one], in series [1], the half-maximal inhibitory concentration (IC50) is over 20 µM, the concentration for an effect of 20% (IC20) is over 10 µM, the “hERG IC20 / TLR8 IC50” value is over 33000 and the “hERG IC20 / TLR9 IC50” value is over 47.1. Also, in series [1], the “hERG IC20 /TLR7 IC50” value was over 961.8.
The corresponding values for `Cc1cc(-c2ccc(N3CCN(Cc4ccc(N5CCNCC5)cn4)CC3)nc2C(C)C)cn(C)c1=O` [Example 7, 5-[2-isopropyl-6-[4-[(5-piperazin-1-yl-2-pyridyl)methyl]piperazin-1-yl]-3-pyridyl]-1,3-dimethyl-pyridin-2-one] are over 20 µM, 4.7 µM, 16000, 24.4 and 940.
On to `CCc1nc(N2CCN(Cc3cnc(N4CC5(CNCCO5)C4)nc3)CC2)ccc1-c1cc(C)c(=O)n(C)c1` [Example 1, 5-[2-ethyl-6-[4-[[2-(5-oxa-2,8-diazaspiro[3.5]nonan-2-yl)pyrimidin-5-yl]methyl]piperazin-1-yl]-3-pyridyl]-1,3-dimethyl-pyridin-2-one], for which, in series [1], the IC50 was over 20 µM, the 20% effect concentration (IC20) is over 10 µM, the “hERG IC20 / TLR8 IC50” value was over 14285.2 and the “hERG IC20 / TLR9 IC50” value was over 14.2. The “hERG IC20 /TLR7 IC50” value in series [1] is on record as over 1052.6. The F in series [2] (dose normalized AUC0-last after IV 2 mg/kg and PO 10 mg/kg) was 40%. In series [2] (rat, IV 2 mg/kg, plasma, read-out: IV AUC0-last), the AUC(0-t) turned out to be 873 ng·h/mL. The compound also had a maximum concentration (Cmax) in series [2] (rat, PO 10 mg/kg, plasma) of 151 ng/mL. For the same compound, the AUC(0-t) in series [2] (rat, PO 10 mg/kg, plasma, read-out: PO AUC0-last) is 1750 ng·h/mL. This compound returned a clearance in series [2] (rat, plasma, IV 2 mg/kg) of 37 mL/min/kg. The half-life in series [2] (rat, plasma, IV 2 mg/kg, read-out: T½ (converted)) was 3.78 h. In addition, the Vd in series [2] (rat, plasma, IV 2 mg/kg, read-out: Vss) turned out to be 7.4 L/kg.
Consider `CCc1nc(N2CCN(Cc3cnc(N4CC(C)(N)C4)nc3)CC2)ccc1-c1cc(C)c(=O)n(C)c1` [Example 3, 5-[6-[4-[[2-(3-amino-3-methyl-azetidin-1-yl)pyrimidin-5-yl]methyl]piperazin-1-yl]-2-ethyl-3-pyridyl]-1,3-dimethyl-pyridin-2-one], for which, in series [1], the IC50 is over 20 µM, the IC20 was over 10 µM, the “hERG IC20 / TLR8 IC50” value was over 33000 and the “hERG IC20 / TLR9 IC50” value is given as over 31.4. Also, the “hERG IC20 /TLR7 IC50” value in series [1] is on record as over 724.6.
